The nature of this series: Human hepatocytes stability assay. The series is classed as in vitro ADME. In a few lines:
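Compound at 1 μM incubated with cryopreserved suspension hepatocytes (1×10^6 cells/mL) in supplemented Williams' E Medium at 37° C, 5% CO2, with shaking. Reactions quenched with methanol at 2, 10, 20, 40, 60 and 120 min; parent depletion followed by LC-MS/MS.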

Results on one compound are retold here after patent US20250163072A1, “MACROCYCLIC COMPOUNDS FOR THE TREATMENT OF CANCER” (Hoffmann-La Roche Inc., priority 2021, published 2025).

`CO[C@@H](C)c1ncc(N2CCOCC2)cc1-c1c2c3cc(ccc3n1CC(F)(F)F)-c1csc(n1)C[C@H](NC(=O)[C@H](C(C)C)N(C)C(=O)[C@H]1CCN(C(=O)[C@H](F)Cl)C1)C(=O)N1CCC[C@H](N1)C(=O)OCC(C)(C)C2` (atropisomer, axis not shown; (M)) [Example 25, (3S)-1-[(2R)-2-chloro-2-fluoro-acetyl]-N-[(1S)-1-[[(7S,13S)-(20M)-20-[2-[(1S)-1-methoxyethyl]-5-morpholino-3-pyridyl]-17,17-dimethyl-8,14-dioxo-21-(2,2,2-trifluoroethyl)-15-oxa-4-thia-9,21,27,28-tetrazapentacyclo[17.5.2.12,5.19,13.022,26]octacosa-1(25),2,5(28),19,22(26),23-hexaen-7-yl]carbamoyl]-2-methyl-propyl]-N-methyl-pyrrolidine-3-carboxamide]: for the setting “1 μM compound, human hepatocytes 1×10^6 cells/mL”, the “CL_hep (Human)” value turned out to be 9.8 mL/min/kg. Where the note is “human hepatocytes”, the “Clearance Category” value is reported as “medium (16.24<CL_hep (mL/min/kg)>6.96 is medium clearance)”.
